# Laboratory results as given in US6391873B1, “Imidazodiazepine derivative” (priority 1999, dated 2002).
# Assays:
# benzodiazepine receptors = assay: 3H-flumazenil in vitro binding assay using homogenized rat cortex; details: inhibition of binding of tritiated flumazenil
# Procedure: The preclinical pharmacological profile of the compound of the present invention for treatment of anxiety disorders, and/or treatment of convulsions and/or non-sedative treatment of sleep disorders involves no, or only minimal motor impairment, in a standard test of motor performance in animals (e.g. rotarod test in mice with motor function evaluated in the same animals at different time points up to 1 hour after intravenous injection).
# The affinity of the compound of the invention to the central benzodiazepine receptors was established in vitro according to the methods described in Nature 294, 763-765 (1981) and J. Neurochemistry 37, 714-722 (1981). According to these methods, the inhibition of the binding of tritiated flumazenil to the specific benzodiazepine receptors in the cortex of rats by the respective test substance is determined. The affinity was calculated as pKi (for background information on pKi see: Cheng, Y. and W. H. Prusoff, Relationship between the inhibition constant (Ki) and the concentration of inhibitor which causes 50 percent inhibition (IC50) of an enzymatic reaction. Biochem. Pharmac. 22: 3099-3108, 1973) as the measure of the specific binding of tritiated flumazenil to specific benzodiazepine receptors in the cortex of rat.
# mice [1] = assay: rotating rod test (rotarod test), motor impairment; format: in vivo, mouse; details: for ED50 for a rotarod deficit: consistently at different time points up to 1 hour after intravenous injection
# Procedure: The motor impairing properties of the compound of the invention can be determined, for example, in the rotating rod test (rotarod test). […] These mice were housed in Macrolon® type I cages for one or more days following arrival in the laboratory colony (12:12 hour light-dark cycle). They have free access to a standard rodent diet (Kliba Mühlen, Kaiseraugst, Switzerland) and tap water in the home cage up to testing. They are brought into the test laboratory at least 30 min before the test which was done during the light portion of the day-night cycle. In the rotating rod test the animals are placed on a horizontally arranged, smooth metal rod having a diameter of 3 cm, which is rotated at 2 revolutions per min. Initially, the animals are given the opportunity of familiarizing themselves with the test situation for at least 30 sec. Subsequently, those animals which succeed in remaining on the rod for at least 1 min are selected for use in the test. These selected animals are then given the test preparations intravenously in different dosages. At various points in time post-injection, it is then determined whether the animals are able to remain wallking on the rod for a minimum period (minimum period of 10 sec at time points 15 sec. 30 sec. 1 min and 2 min; minimum period of 1 min at time points 5 min, 15 min, 30 min, 60 min). The dosage at which 50% of the animals are capable of remaining on the rod (i.e., ED50) was determined at each of these time points.
# mice [2] = assay: fatalities after i.v. administration in mice (rotarod test); format: in vivo, mouse; details: up to 100 mg/kg i.v.
# rats [3] = assay: fatalities after i.v. administration in rats; format: in vivo; details: 100 mg/kg i.v.
# animals = assay: anticonvulsant effects in animals; format: in vivo; details: low doses
# mice [4] = assay: ethanol interaction in mice
# rats [5] = assay: cognitive impairment in rats
# mice [6] = assay: mouse operant conflict model of anxiety; details: oral bolus circa 30 min prior to conflict test; punished responding
# [7] = tested on: cytochrome P450 isoenzymes; assay: inhibition of cytochrome P450 isoenzymes
# mice [8] = assay: tolerance of the anxiolytic effect in mice after chronic treatment
# mice [9] = assay: withdrawal signs in chronically treated mice challenged with a benzodiazepine receptor antagonist; details: chronically treated mice challenged with benzodiazepine receptor antagonist (e.g., sarmazenil)
compound,measurement,setting,value
"CN(C)Cc1nc(-c2ncn3c2CN(C)C(=O)c2c(Cl)cccc2-3)no1 [compound of the invention, 7-Chloro-3-(5-dimethylaminomethyl-[1,2,4]oxadiazol-3-yl)-5-methyl-4,5-dihydro-imidazo[1,5-a][1,4]benzodiazepin-6-one]",Affinity to benzodiazepine receptors,benzodiazepine receptors,9.1
same,Rotating rod test ED50,mice [1]; 15 sec after administration,>10 mg/kg i.v.
same,Rotating rod test ED50,mice [1]; 20 sec after administration,>10 mg/kg i.v.
same,Rotating rod test ED50,mice [1]; 60 sec after administration,>10 mg/kg i.v.
same,Rotating rod test ED50,mice [1]; 2 min after administration,>10 mg/kg i.v.
same,Rotating rod test ED50,mice [1]; 5 min after administration,>10 mg/kg i.v.
same,Rotating rod test ED50,mice [1]; 15 min after administration,>10 mg/kg i.v.
same,Rotating rod test ED50,mice [1]; 30 min after administration,>10 mg/kg i.v.
same,Rotating rod test ED50,mice [1]; 60 min after administration,>10 mg/kg i.v.
same,ED50 for a rotarod deficit,mice [1],> 10 mg/kg i.v.
same,ED50 for a rotarod deficit,mice [1]; listed as compound of the present invention,greater than 10 mg/kg i.v.
same,fatalities,mice [2],without fatalities occurring
same,fatalities,rats [3],without fatalities occurring
same,anticonvulsant effects,animals,show anticonvulsant effects
same,ethanol interaction,mice [4],low ethanol interaction
same,cognitive impairment,rats [5],minimal cognitive impairment
same,minimum effective dose (statistically significant anxiolytic-like effect),mice [6],3 mg/kg p.o.
same,inhibition of cytochrome P450 isoenzymes,[7],minimal or no inhibition
same,reduction (so-called tolerance) of the anxiolytic effect,mice [8],minimal reduction
same,withdrawal signs,mice [9],minimal withdrawal signs
